From patent US7173012B2, “Hypoglycaemic peptides and methods of use thereof” (International Diabetes Institute, priority 2001, dated 2007)
“Also recorded” adds a separate entry of the source. Ends that are not written are not given here.

Tests used:
[1] = Isoaspartate (β-isomerised) formation in synthetic peptides, by reverse-phase HPLC; type: physicochemical; conditions: β-isomerised peptide obtained after synthesis (piperidine deprotection, TFA cleavage), HPLC 214 nm
Protocol: A mixture of synthetic peptides (Gly-His-Thr-Asp, Val-His-Thr-Asp and Asp-His-Thr-Gly) and their corresponding β-isomerised formation (Gly-His-Thr-βAsp, Val-His-Thr-βAsp and βAsp-His-Thr-Gly) were separated by reverse-phase HPLC and eluted with an isocritic running with 2% buffer B (buffer A is 0.1% trifluoroacetic acid in H2O) at 1 ml/min over 30 min. Peptides were determined by their absorbance at 214 nm.
Based on the structure of the UP-401 peptide, analogues with various sequences were synthesised for further biological characterization as shown in Table 1. All synthetic peptides were purified by RP-HPLC using a C18 column and characterized by mass spectrometry. During synthesis, the peptide chains were treated with base (piperidine) in deprotection steps and then eventually treated with TFA at cleavage steps.
Table 2 and FIG. 5 outline the amino acid sequence of the UP-401 peptide and its analogues, and the ratio of nonisomerized and β-isomerised peptide obtained in each.

[2] = system: isolated rat hemidiaphragm muscle; test: Glycogen synthesis in isolated rat hemidiaphragm muscle (incorporation of 14C-glucose into glycogen, in presence of insulin); type: cell-based; conditions: for biological activity on insulin-stimulated glycogen synthesis (in words): isolated rat muscle, FIG. 3 / FIG. 7
Protocol: Glycogen synthesis in isolated rat hemidiaphragm muscle was measured by the rate of incorporation of radioactive glucose into glycogen (16). Overnight-fasted male albino Wistar rats (20 week old) were killed by decapitation and their hemidiaphragm tissues immediately removed. The hemidiaphragm tissues were pre-incubated for 30 min at 37° C., in Kreb's-Ringer bicarbonate buffer (KRB) containing 1.0% bovine serum albumin BSA, and 1.0 mg/ml glucose gassed pH 7.4. After pre-incubation, the tissues were further incubated for 60 min at 37° C. in 2 ml of incubation buffer in the presence of insulin at a concentration 0.33 μu/ml and the label ^14C-glucose at 0.28 μCi/ml under an atmosphere of carbogen with or without peptide of various concentrations. At the end of the incubation, the tissues were removed and rinsed with cold distilled water, blotted and placed in a plastic centrifuge tubes for glycogen extraction with 30% KOH 10 μl/mg tissue for 5 min in a boiling water bath. The tissue ^14C-glycogen was precipitated with saturated Na2SO4 and absolute alcohol. After centrifugation at 4000×G at 4° C. for 10 min, the supematant was discarded and the precipitate washed twice by resuspending in 66% ethanol and centrifuged as before. The final glycogen precipitate was dissolved in distilled water 30 μl/mg and 1.0 ml of the solution was transferred to a counting vial containing a triton scintillator (8 ml). Radioactivity was determined in a Wallac LKB counter from Pharmacia-Wallac Oy, (Turku, Finland). The total glycogen content in the diaphragm muscle was calculated according to the method of Van Handel (17).
(§1) Experimental procedures for the in vitro and in vivo assays were described in Example 1. In principle, the rate of conversion from glucose into glycogen in isolated hemidiaphragm muscle was used as the index to determine the in vitro activity of peptides (6). The in vivo tests for the peptides were performed on Zucker fatty (fa/fa) rats by i.v. administration of peptides and the reduction of the blood glucose levels was measured and regarded as the index of the hypoglycaemic effect (18).

[3] = system: male Zucker fatty (fa/fa) rats; test: In vivo hypoglycaemic test: blood glucose after i.v. peptide then insulin; parameters: species or system rat; blood glucose level reduced to a maximum of / Reduction of blood glucose level: unit not given here; conditions: for in vivo hypoglycaemic effect on blood glucose levels (in words): i.v., overnight-fasted Zucker fatty rats, compared with saline control or comparator peptide
Protocol: In vivo tests of the hypoglycaemic peptides were performed on overnight-fasted male Zucker fatty (fa/fa) rats 45 min after induction of anaesthesia with an intraperitoneal injection of sodium pentobarbitone at a dose 60 mg/kg body weight. Basal blood glucose samples were collected from the cut tip of the tail. The two femoral veins in the anaesthetised animals were then exposed, followed immediately by an intravenous injection of saline (control) or peptide into the left femoral vein. Approximately 15 min after the administration of peptide or saline via the left femoral vein, insulin was injected via the right femoral vein. […] Blood glucose levels of the collected samples were measured immediately by the glucose oxidation method using a Yellow Springs YSI modal 2300 STAT Glucose Analyzer (Yellow Spring, Ohio).
as §1

[4] = 3 mg/kg body weight, Example 1, FIG. 4

Asp-His-Thr-Gly-NH2 (DHTG-NH2) [UP-403]
Isoasp [1]: 75.2 | biological activity on insulin-stimulated glycogen synthesis (in words) [2]: reduced the peptide activity; also recorded: reduced the potency | biological activity on insulin-stimulated glycogen synthesis (in words) ([2]; listed as Asp-His-Thr-Gly): also detected

Val-His-Thr-Pro-NH2 (VHTP-NH2) [UP-404]
Reduction of blood glucose level ([3]; 3 mg, 15 min): −0.21 | Reduction of blood glucose level ([3]; 3 mg, 30 min): −0.54 | Reduction of blood glucose level ([3]; 3 mg, 45 min): −0.77 | Reduction of blood glucose level ([3]; 3 mg, 60 min): −0.95 | Reduction of blood glucose level ([3]; 3 mg, 75 min): 0.23 | Reduction of blood glucose level ([3]; 3 mg, 90 min): −0.03 | biological activity on insulin-stimulated glycogen synthesis (in words) [2]: reduced the potency | biological activity on insulin-stimulated glycogen synthesis (in words) ([2]; listed as Val-His-Thr-Pro): no appreciable stimulation

Gly-His-Thr-Asp-NH2 (GHTD-NH2) [UP-401]
hypoglycaemic action diminished after [3, 4]: 90 min | in vivo hypoglycaemic action found after the injection (onset) [3, 4]: 15 min | time of maximal hypoglycaemic effect after treatment [3, 4]: 45 min | time of maximal decrease in blood glucose level after treatment ([3]; 3 mg/kg, Example 2): 60 min | Reduction of blood glucose level ([3]; 3 mg, 15 min): −0.50 | Reduction of blood glucose level ([3]; 3 mg, 30 min): −0.91 | Reduction of blood glucose level ([3]; 3 mg, 45 min): −1.1 | Reduction of blood glucose level ([3]; 3 mg, 60 min): −0.93 | Reduction of blood glucose level ([3]; 3 mg, 75 min): −0.64 | Reduction of blood glucose level ([3]; 3 mg, 90 min): −0.08 | in vivo hypoglycaemic effect on blood glucose levels (in words) [3]: significant | Isoasp [1]: 45.2 | increase of glycogen synthesis ([2]; isolated rat hemi-diaphragm, with insulin, synthetic peptide 0.1 μM (FIG. 3)): 36.3% | biological activity on insulin-stimulated glycogen synthesis (in words) [2]: better insulin-potentiating effect than that of the known insulin-potentiating hGH(6–13) peptide

Val-His-Thr-Asp-NH2 (VHTD-NH2) [UP-402]
blood glucose level reduced to a maximum of ([3]; 3 mg/kg body weight): 0.95 | Reduction of blood glucose level ([3]; 3 mg, 15 min): −0.26 | Reduction of blood glucose level ([3]; 3 mg, 30 min): −0.62 | Reduction of blood glucose level ([3]; 3 mg, 45 min): −1.21 | Reduction of blood glucose level ([3]; 3 mg, 60 min): −1.25 | Reduction of blood glucose level ([3]; 3 mg, 75 min): −0.64 | Reduction of blood glucose level ([3]; 3 mg, 90 min): 0.05 | effect on blood glucose prolonged to ([3]; 4.5 mg/kg body weight, FIG. 8): 120 min | Reduction of blood glucose level ([3]; 4.5 mg, 15 min): −0.43 | Reduction of blood glucose level ([3]; 4.5 mg, 30 min): −1.03 | Reduction of blood glucose level ([3]; 4.5 mg, 45 min): −1.50 | Reduction of blood glucose level ([3]; 4.5 mg, 60 min): −1.45 | Reduction of blood glucose level ([3]; 4.5 mg, 75 min): −1.52 | Reduction of blood glucose level ([3]; 4.5 mg, 90 min): −1.35 | Reduction of blood glucose level ([3]; 4.5 mg, 120 min): 0.07 | Isoasp [1]: 48.3 | higher glycogen synthesis ([2]; in vitro, insulin-stimulated, isolated rat muscle (FIG. 7)): 68% | biological activity on insulin-stimulated glycogen synthesis (in words) [2]: much higher than that of any other peptide

isoAsp-His-Thr-Gly-NH2 (XHTG; HELM PEPTIDE1{[N[C@@H](CC(=O)[*:2])C(=O)O].H.T.G.[am]}$$$$V2.0; N-terminus assumed; SMILES C[C@@H](O)[C@H](NC(=O)[C@H](Cc1c[nH]cn1)NC(=O)C[C@H](N)C(=O)O)C(=O)NCC(N)=O) [UP-407]
biological activity on insulin-stimulated glycogen synthesis (in words) [2]: reduced the peptide activity | biological activity on insulin-stimulated glycogen synthesis (in words) ([2]; listed as βAsp-His-Thr-Gly): also detected

Val-His-Thr-isoAsp-NH2 (VHTX; HELM PEPTIDE1{V.H.T.[O=C(O)[C@H](CC(=O)[*:2])N[*:1]].[am]}$$$$V2.0; N-terminus assumed; SMILES CC(C)[C@H](N)C(=O)N[C@@H](Cc1c[nH]cn1)C(=O)N[C@H](C(=O)N[C@@H](CC(N)=O)C(=O)O)[C@@H](C)O) [UP-406]
in vivo hypoglycaemic effect on blood glucose levels (in words) [3]: No significant difference | biological activity on insulin-stimulated glycogen synthesis (in words) [2]: reduced the potency | biological activity of isoaspartate peptide, reduced to (relative to Val-His-Thr-Asp) ([2]; peptide concentration of 0.1 mM, insulin-stimulated glycogen synthesis): 46%
